Measured values from US6693085B2, “Macrolide compound JK” (Higeta Shoyu Co., Ltd., priority 2000, dated 2004).
Converted amounts (≈) assume the structure as drawn. Like-named read-outs stand apart in the source and are kept apart here.

Tests used:
[1] = test system: Actinomadura pelletieri IFM0903; experiment: Sensitivity of the producing strain against antibiotics; type: cell-based; settings: Actinomadura pelletieri IFM0903, strain characterisation
[2] = test system: clinically freshly isolated MRSAs; experiment: Anti-MRSA activity (MIC), 11 clinically freshly isolated MRSA strains; type: cell-based, Staphylococcus aureus; settings: for MIC: Staphylococcus aureus, MRSA
Description: (§1) Antimicrobial activity of JK-1 was determined by measuring the minimum growth inhibition concentration (MIC) as follows.
(§2) MIC values of JK against a variety of microorganisms were determined on a Mueller-Hinton broth containing 0.2% glucose according to the rule of Japanese Society of Chemotherapy (Kouseibussitsu Taiyo (The Essentials of Antibiotics), 4th ed., University of Tokyo Press, 1992).
(§3) JK-1 was dissolved in methanol, and diluted with the above medium, repeating 2-fold dilution starting from 1 mg/ml. Test microorganisms were added to the above medium to give a test solution of 1×10^6 cells/ml. The JK solution (20 μl) and the test solution (180 μl) were dispensed in a 96 well microplate and incubated at 37° C. After 24 hours, either positive or negative growth was confirmed visually, and the MIC value was caluculated.
Among gram-positive bacteria, there was no difference between MIC values, especially, of Staphylococcus aureus and its multi-drug resistant strain MRSA (Table 5) which have become a clinical problem. In this situation, the antimicrobial activity of JK-1 was compared to that of commercially available 3 drugs in 11 strains of clinically freshly isolated MRSAs.

[3] = test system: gram-positive bacteria; experiment: Antimicrobial activity (MIC), summary for gram-positive bacteria; type: cell-based; settings: range over the gram-positive bacteria of Table 5
Description: as §1, §2, §3

[4] = test system: MRSA; experiment: Antimicrobial activity (MIC, broth dilution); type: cell-based, Staphylococcus aureus; settings: 24 hours, 37° C.
Description: as §1, §2, §3

[5] = test system: Corynebacterium xerosis; experiment: Antimicrobial activity (MIC, broth dilution); type: cell-based; settings: 24 hours, 37° C.
Description: as §1, §2, §3

[6] = test system: Micrococcus luteus; experiment: Antimicrobial activity (MIC, broth dilution); type: cell-based; settings: 24 hours, 37° C.
Description: as §1, §2, §3

[7] = test system: Nocardia asteroides; experiment: Antimicrobial activity (MIC, broth dilution); type: cell-based; settings: 24 hours, 37° C.
Description: as §1, §2, §3

[8] = test system: Asperigillus niger; experiment: Antimicrobial activity (MIC, broth dilution); type: cell-based; settings: 24 hours, 37° C.
Description: as §1, §2, §3

[9] = test system: Staphylococcus aureus 209P; experiment: Antimicrobial activity (MIC, broth dilution); type: cell-based; settings: 24 hours, 37° C.
Description: as §1, §2, §3

[10] = test system: Gordonia bronchialis; experiment: Antimicrobial activity (MIC, broth dilution); type: cell-based; settings: 24 hours, 37° C.
Description: as §1, §2, §3

[11] = test system: Candida albicans; experiment: Antimicrobial activity (MIC, broth dilution); type: cell-based; settings: 24 hours, 37° C.
Description: as §1, §2, §3

[12] = test system: Escherichia coli NIH JC-2; experiment: Antimicrobial activity (MIC, broth dilution); type: cell-based; settings: Escherichia coli NIH JC-2, 24 hours, 37° C.
Description: as §1, §2, §3

[13] = test system: Bacillus subtilis PCII89; experiment: Antimicrobial activity (MIC, broth dilution); type: cell-based; settings: Bacillus subtilis PCII89, 24 hours, 37° C.
Description: as §1, §2, §3

[14] = test system: gram-negative bacteria and fungi; experiment: Antimicrobial activity (MIC), summary for gram-negative bacteria and fungi; type: cell-based; settings: summary of Table 5
Description: as §1, §2, §3

Question: For `O=c1[nH]cc(F)c(=O)[nH]1` [Compound 5-FU, 5-FU], which “Sensitivity against Antibiotics” value [1] is on record?
Answer: positive

Question: For `CC1(C)S[C@@H]2[C@H](NC(=O)Cc3ccccc3)C(=O)N2[C@H]1C(=O)O` [penicillin-G], which MIC values ([2]; MRSA strain 3666) is on record?
Answer: >100 µg/mL

Question: What about the MIC values ([2]; MRSA strain 3667) of the same molecule?
Answer: >100 µg/mL

Question: What about the MIC values ([2]; MRSA strain 3668) of the same molecule?
Answer: >100 µg/mL

Question: And the MIC values ([2]; MRSA strain 3669)?
Answer: >100 µg/mL

Question: What about the MIC values ([2]; MRSA strain 3670) of the same molecule?
Answer: >100 µg/mL

Question: What about the MIC values ([2]; MRSA strain 3671) of the same molecule?
Answer: >100 µg/mL

Question: And the MIC values ([2]; MRSA strain S-1)?
Answer: >100 µg/mL

Question: And the MIC values ([2]; MRSA strain S-2)?
Answer: >100 µg/mL

Question: And the MIC values ([2]; MRSA strain S-3)?
Answer: >100 µg/mL

Question: What about the MIC values ([2]; MRSA strain S-4) of the same molecule?
Answer: >100 µg/mL

Question: What about the MIC values ([2]; MRSA strain S-5) of the same molecule?
Answer: >100 µg/mL

Question: Which results are given for `CN[C@H](CC(C)C)C(=O)N[C@H]1C(=O)N[C@@H](CC(N)=O)C(=O)N[C@H]2C(=O)N[C@H]3C(=O)N[C@H](C(=O)N[C@H](C(=O)O)c4cc(O)cc(O)c4-c4cc3ccc4O)[C@H](O)c3ccc(c(Cl)c3)Oc3cc2cc(c3O[C@@H]2O[C@H](CO)[C@@H](O)[C@H](O)[C@H]2O[C@H]2C[C@](C)(N)[C@H](O)[C@H](C)O2)Oc2ccc(cc2Cl)[C@H]1O` [vancomycin]?
Answer: MIC ([2]; read-out: MIC values, MRSA strain 3666): 1.56 µg/mL (≈ 1.08 µM); MIC ([2]; read-out: MIC values, MRSA strain 3667): 3.13 µg/mL (≈ 2.16 µM); MIC ([2]; read-out: MIC values, MRSA strain 3668): 1.56 µg/mL (≈ 1.08 µM); MIC ([2]; read-out: MIC values, MRSA strain 3669): 0.78 µg/mL (≈ 0.538 µM); MIC ([2]; read-out: MIC values, MRSA strain 3670): 0.78 µg/mL (≈ 0.538 µM); MIC ([2]; read-out: MIC values, MRSA strain 3671): 0.78 µg/mL (≈ 0.538 µM); MIC ([2]; read-out: MIC values, MRSA strain S-1): 6.25 µg/mL (≈ 4.31 µM); MIC ([2]; read-out: MIC values, MRSA strain S-2): 3.13 µg/mL (≈ 2.16 µM); MIC ([2]; read-out: MIC values, MRSA strain S-3): 1.56 µg/mL (≈ 1.08 µM); MIC ([2]; read-out: MIC values, MRSA strain S-4): 1.56 µg/mL (≈ 1.08 µM); MIC ([2]; read-out: MIC values, MRSA strain S-5): 1.56 µg/mL (≈ 1.08 µM)

Question: With `CCCC1C=CC2C=C(C)C(OC3CC(N)C(NC(=O)c4c(O)ccc(Cl)c4C)C(C)O3)CC=CC3C(CC)=CC4C(O)C(O)CC(C)C4C3(C)C(=O)C3=C(O)C2(C1)OC3=O` (stereo not shown) [JK-2] as the molecule, how does the MIC values ([2]; MRSA strain 3666) read?
Answer: 0.2 µg/mL (≈ 0.232 µM)

Question: And the MIC values ([2]; MRSA strain 3667)?
Answer: 0.2 µg/mL (≈ 0.232 µM)

Question: And the MIC values ([2]; MRSA strain 3668)?
Answer: 0.2 µg/mL (≈ 0.232 µM)

Question: What about the MIC values ([2]; MRSA strain 3669) of the same molecule?
Answer: 0.2 µg/mL (≈ 0.232 µM)

Question: What about the MIC values ([2]; MRSA strain 3670) of the same molecule?
Answer: 0.78 µg/mL (≈ 0.903 µM)

Question: What about the MIC values ([2]; MRSA strain 3671) of the same molecule?
Answer: 0.2 µg/mL (≈ 0.232 µM)

Question: And the MIC values ([2]; MRSA strain S-1)?
Answer: 0.78 µg/mL (≈ 0.903 µM)

Question: And the MIC values ([2]; MRSA strain S-2)?
Answer: 0.78 µg/mL (≈ 0.903 µM)

Question: What about the MIC values ([2]; MRSA strain S-3) of the same molecule?
Answer: 0.39 µg/mL (≈ 0.452 µM)

Question: What about the MIC values ([2]; MRSA strain S-4) of the same molecule?
Answer: 0.39 µg/mL (≈ 0.452 µM)

Question: And the MIC values ([2]; MRSA strain S-5)?
Answer: 0.2 µg/mL (≈ 0.232 µM)

Question: Which “activity relative to vancomycin” value ([2]; 11 strains of clinically freshly isolated MRSAs) does the source give for `CCCC1C=CC2C=C(C)C(OC3CC(NC)C(NC(=O)c4c(O)ccc(Cl)c4C)C(C)O3)CC=CC3C(CC)=CC4C(O)C(O)CC(C)C4C3(C)C(=O)C3=C(O)C2(C1)OC3=O` (stereo not shown) [JK-1] here?
Answer: about 6 times

Question: And the MIC values ([2]; MRSA strain 3666)?
Answer: 0.2 µg/mL (≈ 0.228 µM)

Question: What about the MIC values ([2]; MRSA strain 3667) of the same molecule?
Answer: 0.2 µg/mL (≈ 0.228 µM)

Question: And the MIC values ([2]; MRSA strain 3668)?
Answer: 0.2 µg/mL (≈ 0.228 µM)

Question: And the MIC values ([2]; MRSA strain 3669)?
Answer: 0.2 µg/mL (≈ 0.228 µM)

Question: What about the MIC values ([2]; MRSA strain 3670) of the same molecule?
Answer: 1.56 µg/mL (≈ 1.78 µM)

Question: What about the MIC values ([2]; MRSA strain 3671) of the same molecule?
Answer: 0.1 µg/mL (≈ 0.114 µM)

Question: What about the MIC values ([2]; MRSA strain S-1) of the same molecule?
Answer: 0.78 µg/mL (≈ 0.889 µM)

Question: And the MIC values ([2]; MRSA strain S-2)?
Answer: 0.39 µg/mL (≈ 0.444 µM)

Question: What about the MIC values ([2]; MRSA strain S-3) of the same molecule?
Answer: 0.39 µg/mL (≈ 0.444 µM)

Question: And the MIC values ([2]; MRSA strain S-4)?
Answer: 0.2 µg/mL (≈ 0.228 µM)

Question: And the MIC values ([2]; MRSA strain S-5)?
Answer: 0.2 µg/mL (≈ 0.228 µM)

Question: What about the “MIC values against gram-positive bacteria” value [3] of the same molecule?
Answer: 0.025 to 0.39 µg/mL

Question: What about the MIC values [4] of the same molecule?
Answer: 0.05 µg/mL (≈ 0.057 µM)

Question: What about the MIC values [5] of the same molecule?
Answer: 0.025 µg/mL (≈ 0.0285 µM)

Question: What about the MIC values [6] of the same molecule?
Answer: 0.05 µg/mL (≈ 0.057 µM)

Question: And the MIC values [7]?
Answer: 0.05 µg/mL (≈ 0.057 µM)

Question: What about the MIC values [8] of the same molecule?
Answer: >100 µg/mL

Question: And the MIC values [9]?
Answer: 0.05 µg/mL (≈ 0.057 µM)

Question: And the MIC values [10]?
Answer: 0.39 µg/mL (≈ 0.444 µM)

Question: What about the MIC values [11] of the same molecule?
Answer: >100 µg/mL

Question: What about the MIC values [12] of the same molecule?
Answer: >100 µg/mL

Question: What about the MIC values [13] of the same molecule?
Answer: 0.39 µg/mL (≈ 0.444 µM)

Question: What about the “antimicrobial activity against gram-negative bacteria and fungi” value [14] of the same molecule?
Answer: No antimicrobial activity

Question: Which “Sensitivity against Antibiotics” value [1] does the source give for `NC[C@H]1O[C@H](O[C@H]2[C@H](O)[C@@H](O[C@H]3O[C@H](CO)[C@@H](O)[C@H](N)[C@H]3O)[C@H](N)C[C@@H]2N)[C@H](N)C[C@@H]1O` [Tobramycin] here?
Answer: positive

Question: How did the MIC ([2]; MRSA strain 3666, read-out: MIC values) turn out when `CC[C@H]1OC(=O)[C@H](C)[C@@H](O[C@H]2C[C@@](C)(OC)[C@@H](O)[C@H](C)O2)[C@H](C)[C@@H](O[C@@H]2O[C@H](C)C[C@H](N(C)C)[C@H]2O)[C@](C)(O)C[C@@H](C)C(=O)[C@H](C)[C@@H](O)[C@]1(C)O` [erythromycin] was run?
Answer: > 100 µg/mL

Question: What about the MIC ([2]; MRSA strain 3667, read-out: MIC values) of the same molecule?
Answer: > 100 µg/mL

Question: What about the MIC ([2]; MRSA strain 3668, read-out: MIC values) of the same molecule?
Answer: > 100 µg/mL

Question: And the MIC ([2]; MRSA strain 3669, read-out: MIC values)?
Answer: > 100 µg/mL

Question: And the MIC ([2]; MRSA strain 3670, read-out: MIC values)?
Answer: > 100 µg/mL

Question: And the MIC ([2]; MRSA strain 3671, read-out: MIC values)?
Answer: > 100 µg/mL

Question: And the MIC ([2]; MRSA strain S-1, read-out: MIC values)?
Answer: > 100 µg/mL

Question: What about the MIC ([2]; MRSA strain S-2, read-out: MIC values) of the same molecule?
Answer: 12.5 µg/mL (≈ 17 µM)

Question: And the MIC ([2]; MRSA strain S-3, read-out: MIC values)?
Answer: > 100 µg/mL

Question: What about the MIC ([2]; MRSA strain S-4, read-out: MIC values) of the same molecule?
Answer: > 100 µg/mL

Question: And the MIC ([2]; MRSA strain S-5, read-out: MIC values)?
Answer: > 100 µg/mL
